Results published in US20200345645A1, “COMPOSITIONS COMPRISING INDIGO AND/OR AN INDIGO DERIVATIVE AND METHODS OF USE THEREOF” (Azora Therapeutics, Inc., priority 2019, published 2020).
Read-outs that look alike come from different tables or passages of the source.

Assays:
[1] = target: T1, aryl hydrocarbon receptor (Homo sapiens, UniProt P35869); details: background statement, "It is known", cited from earlier work
T1 sequence (P35869 11-848): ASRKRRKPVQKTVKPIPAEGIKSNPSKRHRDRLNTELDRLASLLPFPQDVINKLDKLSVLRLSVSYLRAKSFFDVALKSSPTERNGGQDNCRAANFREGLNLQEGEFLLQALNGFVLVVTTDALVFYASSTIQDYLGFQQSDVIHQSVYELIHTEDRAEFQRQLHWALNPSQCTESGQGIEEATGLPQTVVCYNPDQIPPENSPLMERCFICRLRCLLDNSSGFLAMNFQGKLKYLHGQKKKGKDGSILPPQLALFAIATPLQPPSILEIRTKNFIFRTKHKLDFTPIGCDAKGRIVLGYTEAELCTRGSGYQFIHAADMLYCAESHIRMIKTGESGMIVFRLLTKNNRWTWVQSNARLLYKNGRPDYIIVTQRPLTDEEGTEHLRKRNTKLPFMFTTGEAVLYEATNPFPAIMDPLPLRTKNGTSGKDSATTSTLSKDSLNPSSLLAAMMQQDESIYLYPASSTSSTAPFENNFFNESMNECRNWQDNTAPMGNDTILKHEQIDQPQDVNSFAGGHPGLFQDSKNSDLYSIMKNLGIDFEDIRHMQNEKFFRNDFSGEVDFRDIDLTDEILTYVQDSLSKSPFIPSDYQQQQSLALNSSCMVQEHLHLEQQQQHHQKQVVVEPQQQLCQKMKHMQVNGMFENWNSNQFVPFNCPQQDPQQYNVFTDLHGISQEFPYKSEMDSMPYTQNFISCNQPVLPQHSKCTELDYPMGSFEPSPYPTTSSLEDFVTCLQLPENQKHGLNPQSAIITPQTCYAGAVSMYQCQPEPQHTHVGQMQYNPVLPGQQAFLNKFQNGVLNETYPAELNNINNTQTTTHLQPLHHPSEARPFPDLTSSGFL

human AhR = human AhR (Homo sapiens, UniProt P35869); details: 24 hours incubation, reporter cells from human Huh7 cells expressing human AhR and ARNT
Experimental: Each was incubated for 24 hours with reporter cells made from human Huh7 cells expressing human AhR and ARNT with luciferase expressed behind a genetic response element that responds to dimerized AhR/ARNT.
After incubation, the medium was aspirated and a detection reagent was added followed by a measurement of the relative luminescent units compared to a negative control of DMSO.

[2] = Release of indirubin into fasted-state simulated intestinal fluid (FaSSIF), HPLC; format: physicochemical; details: for Amount of indirubin in % Q (measured amount in solution divided by theoretical maximum) / Amount of indirubin in solution: FaSSIF pH 6.5, 37° C., 2 mg total indirubin in 500 mL; for Amount of indirubin in solution: mean of six replicates
Experimental: Additional solid amorphous dispersions of synthetic indirubin in six different hydrophilic carrier polymers-povidone, PVAc-PVCap-PEG, (SOLUPLUS®), copovidone, HPMC-AS, HPMCP and polyvinyl acetate phthalate (PVAP)—were prepared for a further study, as described in Example 15. In this study, dispersions with indirubin to polymer ratios of 1:9 or 0.5:9.5 were prepared, and the release of indirubin into fasted-state simulated intestinal fluid was determined. For comparison, Indigo naturalis and crystalline synthetic indirubin were also tested. The amount of indirubin in fasted-state simulated intestinal fluid was determined by HPLC for samples of the fluid taken. The mean amount of indirubin in solution at each time point was determined, and is shown in Table 1 in units of μg/L and in Table 2 as a percentage, referred to a % Q, of measured amount (mass) of indirubin in solution divided by the theoretical maximum amount (mass) of indirubin in solution.
Solid amorphous dispersions of synthetic indirubin in six different hydrophilic carrier polymers-povidone, PVAc-PVCap-PEG, (SOLUPLUS®), copovidone, HPMC-AS, HPMCP and polyvinyl acetate phthalate (PVAP) with indirubin to polymer ratios of 1:9 or 0.5 to 9.5 were prepared as described in Example 13. For comparison, Indigo naturalis and crystalline synthetic indirubin were also tested. All test articles were normalized to a total indirubin of 2 mg and added to 500 mL of fasted-state simulated intestinal fluid (FaSSIF) medium consisting of 3 mM taurocholate, 0.75 mM phospholipids, 148 mM sodium, 106 mM chloride, and 29 mM phosphate at pH 6.5. Six replicates of each test article were assessed under the following testing conditions: mixing with USP #2 paddles at 100 RPM at 37° C. with sampling of 5 mL at each time point and filtration through a 10 μm filter. […] The mean amount of indirubin in solution at each time point was determined, and is shown in Table 1 in units of μg/L and in Table 2 as a percentage, referred to a % Q, of measured amount (mass) of indirubin in solution divided by the theoretical maximum amount (mass) of indirubin in solution.

Chain of human AhR (P27540 whole entry partner, one chain of several): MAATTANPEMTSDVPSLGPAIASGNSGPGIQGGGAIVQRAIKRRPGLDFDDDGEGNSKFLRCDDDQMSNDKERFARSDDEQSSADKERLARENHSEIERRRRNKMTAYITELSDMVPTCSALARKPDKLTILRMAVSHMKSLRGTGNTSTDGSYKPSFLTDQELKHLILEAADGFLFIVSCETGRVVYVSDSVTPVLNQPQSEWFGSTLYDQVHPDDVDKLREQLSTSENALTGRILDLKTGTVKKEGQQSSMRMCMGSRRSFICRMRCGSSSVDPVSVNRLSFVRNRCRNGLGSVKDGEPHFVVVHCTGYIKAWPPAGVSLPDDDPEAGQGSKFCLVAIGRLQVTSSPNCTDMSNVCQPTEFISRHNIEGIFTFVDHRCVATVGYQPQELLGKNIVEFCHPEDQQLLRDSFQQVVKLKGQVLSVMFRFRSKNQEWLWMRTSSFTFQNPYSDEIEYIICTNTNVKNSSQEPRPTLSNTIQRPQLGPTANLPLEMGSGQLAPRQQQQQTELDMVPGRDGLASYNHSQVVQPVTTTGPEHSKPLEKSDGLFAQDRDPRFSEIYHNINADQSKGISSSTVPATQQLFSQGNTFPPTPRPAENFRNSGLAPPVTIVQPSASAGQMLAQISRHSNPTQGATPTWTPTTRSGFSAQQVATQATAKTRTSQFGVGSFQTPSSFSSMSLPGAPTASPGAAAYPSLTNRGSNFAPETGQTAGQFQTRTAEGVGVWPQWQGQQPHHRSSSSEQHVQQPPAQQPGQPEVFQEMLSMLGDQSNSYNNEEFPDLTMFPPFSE

Row | SMILES | Agonism of the aryl hydrocarbon receptor [1] | Agonism of the aryl hydrocarbon receptor ([1]; listed as Indigo) | Activation of the AhR receptor (fold activation relative to DMSO, FIG. 4) (human AhR) | Amount of indirubin in % Q (measured amount in solution divided by theoretical maximum) ([2]; 5 min) [% Q] | Amount of indirubin in solution ([2]; 5 min) [µg/L] | Amount of indirubin in % Q (measured amount in solution divided by theoretical maximum) ([2]; 10 min) [% Q] | Amount of indirubin in solution ([2]; 10 min) [µg/L] | Amount of indirubin in % Q (measured amount in solution divided by theoretical maximum) ([2]; 20 min) [% Q] | Amount of indirubin in solution ([2]; 20 min) [µg/L] | Amount of indirubin in % Q (measured amount in solution divided by theoretical maximum) ([2]; 30 min) [% Q] | Amount of indirubin in solution ([2]; 30 min) [µg/L] | Amount of indirubin in % Q (measured amount in solution divided by theoretical maximum) ([2]; 60 min) [% Q] | Amount of indirubin in solution ([2]; 60 min) [µg/L] | Amount of indirubin in % Q (measured amount in solution divided by theoretical maximum) ([2]; 90 min) [% Q] | Amount of indirubin in solution ([2]; 90 min) [µg/L] | Amount of indirubin in % Q (measured amount in solution divided by theoretical maximum) ([2]; 120 min) [% Q] | Amount of indirubin in solution ([2]; 120 min) [µg/L] | Release of indirubin, of the total amount of indirubin ([2]; FaSSIF, summary of Tables 1 and 2)
1 | O=C1/C(=C2\Nc3ccccc3C2=O)Nc2ccccc21 [indigo] | potent agonists | less potent than indirubin | – | – | – | – | – | – | – | – | – | – | – | – | – | – | – | –
2 | O=C1Nc2ccccc2/C1=C1/Nc2ccccc2C1=O [Synthetic Indirubin, indirubin] | potent agonists | – | potent activator | 0.02 | 0.02 | 0.03 | 0.03 | 0.03 | 0.03 | 0.03 | 0.03 | 0.04 | 0.04 | 0.05 | 0.05 | 0.07 | 0.07 | Less than 0.1%
